Source: PubChem BioAssay AID256 (DTP/NCI, 2004)
Values joined by “and” are separate entries in the source; they are usually repeats but may differ in a detail not shown here. Equal entries are not always repeated. Inconclusive results and toxic doses are left out. The calls were made as follows: active = survival T/C of 150% or more; inactive = T/C below 125% in these data.

System: CD2F1 mice, L1210 leukemia ip, survival T/C
Test: NCI In Vivo Anticancer Drug Screen. Data for tumor model L1210 Leukemia (intraperitoneal) in CD2F1 (CDF1) mice
Conditions: endpoint: mean survival time, higher = longer survival
Procedure, shortened: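 Compound-dosed mice with transplantable tumor versus matched vehicle controls; endpoint ratio T/C reported.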

[1] = dose: 100.0 mg/kg/injection, schedule: Q04DX002 (ip), vehicle: saline with Tween-80
[2] = dose: 200.0 mg/kg/injection, schedule: Q04DX002 (ip), vehicle: saline with Tween-80
[3] = dose: 400.0 mg/kg/injection, schedule: Q04DX002 (ip), vehicle: saline with Tween-80
[4] = dose: 25.0 mg/kg/injection, schedule: Q01DX001 (ip), vehicle: saline
[5] = dose: 50.0 mg/kg/injection, schedule: Q01DX001 (ip), vehicle: saline
[6] = dose: 100.0 mg/kg/injection, schedule: Q01DX009 (ip), vehicle: saline with Tween-80
[7] = dose: 100.0 mg/kg/injection, schedule: Q04DX003 (ip), vehicle: saline with Tween-80
[8] = dose: 200.0 mg/kg/injection, schedule: Q01DX009 (ip), vehicle: saline with Tween-80
[9] = dose: 200.0 mg/kg/injection, schedule: Q04DX003 (ip), vehicle: saline with Tween-80
[10] = dose: 400.0 mg/kg/injection, schedule: Q01DX009 (ip), vehicle: saline with Tween-80
[11] = dose: 400.0 mg/kg/injection, schedule: Q04DX003 (ip), vehicle: saline with Tween-80
[12] = dose: 25.0 mg/kg/injection, schedule: Q01DX001 (ip), vehicle: saline with Tween-80
[13] = dose: 100.0 mg/kg/injection, schedule: Q01DX001 (ip), vehicle: saline

Measured: T/C

O=C1c2ccccc2C(=O)N1C(=S)N1C(=O)c2ccccc2C1=O
inactive: [1] 96 % of control | [2] 92 % of control | [3] 92 % of control

C1CN(P2(N3CC3)=NP(N3CC3)(N3CC3)=NP(N3CC3)(N3CC3)=N2)CCO1 (stereo unspecified)
inactive: dose: 6.25 mg/kg/injection, schedule: Q01DX009 (ip), vehicle: saline 120 % of control and 123 % of control and 109 % of control | [4] 121 % of control | [5] 119 % of control | dose: 100.0 mg/kg/injection, schedule: Q01DX009 (ip), vehicle: saline 98 % of control

CCOc1ccc(N=[N+]([O-])c2ccc(OCC)cc2)cc1
inactive: [6] 90 % of control | [7] 96 % of control | [8] 97 % of control | [9] 98 % of control | [10] 96 % of control | [11] 101 % of control

CC(C[P+](c1ccccc1)(c1ccccc1)c1ccccc1)C(O)(C(=O)c1ccccc1)c1ccccc1 (stereo unspecified)
inactive: dose: 6.25 mg/kg/injection, schedule: Q01DX001 (ip), vehicle: saline with Tween-80 108 % of control | dose: 6.25 mg/kg/injection, schedule: Q01DX009 (ip), vehicle: saline with Tween-80 95 % of control | dose: 12.5 mg/kg/injection, schedule: Q01DX001 (ip), vehicle: saline with Tween-80 103 % of control | dose: 12.5 mg/kg/injection, schedule: Q01DX009 (ip), vehicle: saline with Tween-80 110 % of control | [12] 108 % of control

CCCCOC(=O)C(C(=O)OCCCC)(C(=O)OCCCC)C(C(=O)OCCCC)(C(=O)OCCCC)C(=O)OCCCC
inactive: [13] 90 % of control | dose: 400.0 mg/kg/injection, schedule: Q01DX001 (ip), vehicle: saline 96 % of control

O=Cc1ccc(OC(=O)Nc2cccc3ccccc23)cc1
inactive: [1] 91 % of control | [2] 98 % of control | [3] 87 % of control

CCc1cc(CSc2ccc(Cl)cc2)ccc1N
inactive: [7] 102 % of control | [9] 100 % of control | [11] 98 % of control

CC(C)(c1cc(Cl)c(OCCO)c(Cl)c1)c1cc(Cl)c(OCCO)c(Cl)c1
inactive: [7] 105 % of control | [9] 102 % of control | [11] 109 % of control

CCCCCCCCCCCCCCCCCCNC(=O)Nc1ccc(CC)cc1
inactive: [6] 98 % of control | [7] 94 % of control | [8] 109 % of control | [9] 89 % of control | [10] 110 % of control | [11] 93 % of control

Nc1nc(=S)c2n[nH]nc2[nH]1
inactive: [12] 102 % of control | dose: 50.0 mg/kg/injection, schedule: Q01DX001 (ip), vehicle: saline with Tween-80 104 % of control

C=C(Cl)C(C)(C)C
inactive: [4] 98 % of control | [5] 104 % of control | [13] 100 % of control

Nc1cc2c(nnn2C2OC(CO)C(O)C2O)c(=O)[nH]1 (stereo unspecified)
inactive: dose: 12.5 mg/kg/injection, schedule: Q01DX005 (ip), vehicle: distilled water + Tween-80 98 % of control | dose: 25.0 mg/kg/injection, schedule: Q01DX005 (ip), vehicle: distilled water + Tween-80 98 % of control | dose: 50.0 mg/kg/injection, schedule: Q01DX005 (ip), vehicle: distilled water + Tween-80 102 % of control | dose: 100.0 mg/kg/injection, schedule: Q01DX005 (ip), vehicle: distilled water + Tween-80 98 % of control | dose: 200.0 mg/kg/injection, schedule: Q01DX005 (ip), vehicle: distilled water + Tween-80 88 % of control

O=C(O)C(c1ccccc1)C(F)(F)F (stereo unspecified)
inactive: [6] 95 % of control | [7] 108 % of control | [8] 105 % of control | [9] 94 % of control | [10] 94 % of control | [11] 92 % of control

c1ccc(-c2nn[nH]n2)nc1
inactive: [13] 101 % of control | dose: 100.0 mg/kg/injection, schedule: Q04DX003 (ip), vehicle: saline 90 % of control and 104 % of control | dose: 200.0 mg/kg/injection, schedule: Q01DX001 (ip), vehicle: saline 101 % of control | dose: 200.0 mg/kg/injection, schedule: Q04DX003 (ip), vehicle: saline 102 % of control and 104 % of control | dose: 400.0 mg/kg/injection, schedule: Q04DX003 (ip), vehicle: saline 94 % of control and 108 % of control

c1ccc2c(c1)Cc1c-2nc2ccccc2c1N1CCOCC1
inactive: dose: 100.0 mg/kg/injection, schedule: Q01DX001 (ip), vehicle: saline with Tween-80 94 % of control | [6] 97 % of control | dose: 200.0 mg/kg/injection, schedule: Q01DX001 (ip), vehicle: saline with Tween-80 100 % of control | [8] 106 % of control | dose: 400.0 mg/kg/injection, schedule: Q01DX001 (ip), vehicle: saline with Tween-80 92 % of control
